Measurements as given in patent US9844536B2, “3-(1H-imidazo[4,5-C]pyridin-2-yl)-1H-pyrazolo[3,4-C]pyridine and therapeutic uses thereof” (Samumed, LLC, priority 2014, dated 2017).
pEC50, pIC50: −log10 of the molar value.

Experiments:
LL29 cells = assay: Inhibition of the fibrotic process (αSMA staining) in TGF-β1 treated primary human fibroblasts from IPF patients; type: cell-based; settings: Fibroblast, 96 h, TGF-β1 20 ng/mL, 4 days, dose-response 10 μM to 1.87 nM, read-out: Inhibition of fibrosis EC50
Description: The above synthesized compounds were screened using primary human fibroblasts (derived from IPF patients) treated with TGF-β1 to determine their ability to inhibit the fibrotic process.
Primary human fibroblasts derived from IPF patients (LL29 cells) [^1Xiaoqiu Liu, et. al., “Fibrotic Lung Fibroblasts Show Blunted Inhibition by cAMP Due to Deficient cAMP Response Element-Binding Protein Phosphorylation”, Journal of Pharmacology and Experimental Therapeutics (2005), 315(2), 678-687; ^2Watts, K. L., et. al., “RhoA signaling modulates cyclin D1 expression in human lung fibroblasts; implications for idiopathic pulmonary fibrosis”, Respiratory Research (2006), 7(1), 88] were obtained from American Type Culture Collection (ATCC) and expanded in F12 medium supplemented with 15% Fetal Bovine Serum and Penicillin/Streptomycin.
Each compound was dissolved in DMSO as a 10 mM stock and used to prepare compound source plates. Serial dilution (1:2, 11-point dose-response curves from 10 μM to 1.87 nM) and compound transfer was performed using the ECHO 550 (Labcyte, Sunnyvale, Calif.) into 384-well clear bottom assay plates (Greiner Bio-One) with appropriate DMSO backfill for a final DMSO concentration of 0.1%. LL29 cells were plated at 1,500 cells/well in 80 μl/well F12 medium supplemented with 1% Fetal Bovine Serum. One hour after addition of the cells, TGF-β1 (Peprotech; 20 ng/mL) was added to the plates to induce fibrosis (ref. 1 and 2 above). Wells treated with TGF-β1 and containing DMSO were used as controls. Cells were incubated at 37° C. and 5% CO2 for 4 days. Following incubation for 4 days, SYTOX green nucleic acid stain (Life Technologies [Thermo Fisher Scientific]) was added to the wells at a final concentration of 1 uM and incubated at room temperature for 30 min. Cells were then fixed using 4% formaldehyde (Electron Microscopy Sciences), washed 3 times with PBS followed by blocking and permeabilization using 3% Bovine Serum Albumin (BSA; Sigma) and 0.3% Triton X-100 (Sigma) in PBS. Cells were then stained with antibody specific to α-smooth muscle actin (αSMA; Abcam) (ref. 1 and 2 above) in 3% Bovine Serum Albumin (BSA; Sigma) and 0.3% Triton X-100 (Sigma) in PBS, and incubated overnight at 4° C. Cells were then washed 3 times with PBS, followed by incubation with Alexa Flor-647 conjugated secondary antibody (Life Technologies [Thermo Fisher Scientific]) and DAPI at room temperature for 1 hour. Cells were then washed 3 times with PBS and plates were sealed for imaging. αSMA staining was imaged by excitation at 630 nm and emission at 665 nm and quantified using the Compartmental Analysis program on the CellInsight CX5 (Thermo Scientific). Dead or apoptotic cells were excluded from analysis based on positive SYTOX green staining. % of total cells positive for αSMA were counted in each well and normalized to the average of 11 wells treated with TGF-31 on the same plate using Dotmatics' Studies Software. The normalized averages (fold change over untreated) of 3 replicate wells for each compound concentration were used to create dose-responses curves and EC50 values were calculated using non-linear regression curve fit in the Dotmatics' Studies Software. The EC50 values are reported.

[1] = system: Wnt pathway (Sp5-Luc reporter, SW480 cells); assay: Sp5-Luc reporter gene screening assay for Wnt activity in SW480 colon carcinoma cells; type: cell-based; settings: Homo sapiens
How it was run: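 IC50 values come from variable-slope four-parameter fits of luciferase signal normalized to DMSO wells. Stable Sp5-Luc reporter SW480 colon carcinoma cells were exposed to compounds in a 3-fold dilution series (source plates from 10 mM stock) for forty-two hours at 37 °C.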

| pIC50 [1] | SMILES | pEC50 (LL29 cells) |
| --- | --- | --- |
| 7.09 | CCNCc1cncc(-c2cc3c(-c4nc5c(-c6ccoc6)nccc5[nH]4)n[nH]c3cn2)c1 [Compound 292, N-((5-(3-(4-(Furan-3-yl)-1H-imidazo[4,5-c]pyridin-2-yl)-1H-pyrazolo[3,4-c]pyridin-5-yl)pyridin-3-yl)methyl)ethanamine] | ≥ 8.05 |
| 7.19 | CCCCC(=O)Nc1cncc(-c2cc3c(-c4nc5c(-c6ccoc6)nccc5[nH]4)n[nH]c3cn2)c1 [Compound 304, N-(5-(3-(4-(Furan-3-yl)-1H-imidazo[4,5-c]pyridin-2-yl)-1H-pyrazolo[3,4-c]pyridin-5-yl)pyridin-3-yl)pentanamide] | ≤ 5.00 |
| 6.40 | c1cc2[nH]c(-c3n[nH]c4cnc(-c5cncc(CNCC6CCCC6)c5)cc34)nc2c(-c2ccoc2)n1 [Compound 310, 1-Cyclopentyl-N-((5-(3-(4-(furan-3-yl)-1H-imidazo[4,5-c]pyridin-2-yl)-1H-pyrazolo[3,4-c]pyridin-5-yl)pyridin-3-yl)methyl)methanamine] | < 5.00 |
| 7.27 | CN(C)c1cncc(-c2cc3c(-c4nc5c(-c6cccs6)nccc5[nH]4)n[nH]c3cn2)c1 [Compound 319, N,N-Dimethyl-5-(3-(4-(thiophen-2-yl)-1H-imidazo[4,5-c]pyridin-2-yl)-1H-pyrazolo[3,4-c]pyridin-5-yl)pyridin-3-amine] | ≥ 8.05 |
| < 5.00 | CN(C)Cc1cncc(-c2cc3c(-c4nc5c(-c6cccs6)nccc5[nH]4)n[nH]c3cn2)c1 [Compound 325, N,N-Dimethyl-1-(5-(3-(4-(thiophen-2-yl)-1H-imidazo[4,5-c]pyridin-2-yl)-1H-pyrazolo[3,4-c]pyridin-5-yl)pyridin-3-yl)methanamine] | ≥ 8.05 |
| 7.76 | CCCC(=O)Nc1cncc(-c2cc3c(-c4nc5c(-c6cccs6)nccc5[nH]4)n[nH]c3cn2)c1 [Compound 329, N-(5-(3-(4-(Thiophen-2-yl)-1H-imidazo[4,5-c]pyridin-2-yl)-1H-pyrazolo[3,4-c]pyridin-5-yl)pyridin-3-yl)butyramide] | ≤ 5.00 |
| 7.82 | FC1(F)CCN(Cc2cncc(-c3cc4c(-c5nc6c(-c7cccs7)nccc6[nH]5)n[nH]c4cn3)c2)C1 [Compound 337, 5-(5-((3,3-Difluoropyrrolidin-1-yl)methyl)pyridin-3-yl)-3-(4-(thiophen-2-yl)-1H-imidazo[4,5-c]pyridin-2-yl)-1H-pyrazolo[3,4-c]pyridine] | ≥ 8.05 |
| 7.50 | CC(C)CC(=O)Nc1cncc(-c2cc3c(-c4nc5c(-c6ccc(F)s6)nccc5[nH]4)n[nH]c3cn2)c1 [Compound 340, N-(5-(3-(4-(5-Fluorothiophen-2-yl)-1H-imidazo[4,5-c]pyridin-2-yl)-1H-pyrazolo[3,4-c]pyridin-5-yl)pyridin-3-yl)-3-methylbutanamide] | 6.51 |
| 7.00 | Fc1ccc(-c2nccc3[nH]c(-c4n[nH]c5cnc(-c6cncc(CN7CCCC7)c6)cc45)nc23)s1 [Compound 352, 3-(4-(5-Fluorothiophen-2-yl)-1H-imidazo[4,5-c]pyridin-2-yl)-5-(5-(pyrrolidin-1-ylmethyl)pyridin-3-yl)-1H-pyrazolo[3,4-c]pyridine] | ≤ 5.00 |
| 7.86 | O=C(Nc1cncc(-c2cc3c(-c4nc5c(-c6ccc(F)s6)nccc5[nH]4)n[nH]c3cn2)c1)C1CCC1 [Compound 358, N-(5-(3-(4-(5-Fluorothiophen-2-yl)-1H-imidazo[4,5-c]pyridin-2-yl)-1H-pyrazolo[3,4-c]pyridin-5-yl)pyridin-3-yl)cyclobutanecarboxamide] | 7.40 |
| 7.41 | CCNCc1cncc(-c2cc3c(-c4nc5c(-c6ccc(C)s6)nccc5[nH]4)n[nH]c3cn2)c1 [Compound 370, N-((5-(3-(4-(5-Methylthiophen-2-yl)-1H-imidazo[4,5-c]pyridin-2-yl)-1H-pyrazolo[3,4-c]pyridin-5-yl)pyridin-3-yl)methyl)ethanamine] | 6.24 |
| 7.61 | Cc1ccc(-c2nccc3[nH]c(-c4n[nH]c5cnc(-c6cncc(NC(=O)C(C)(C)C)c6)cc45)nc23)s1 [Compound 372, N-(5-(3-(4-(5-Methylthiophen-2-yl)-1H-imidazo[4,5-c]pyridin-2-yl)-1H-pyrazolo[3,4-c]pyridin-5-yl)pyridin-3-yl)pivalamide] | 5.96 |
| 8.00 | Cc1ccc(-c2nccc3[nH]c(-c4n[nH]c5cnc(-c6cncc(NC(=O)C(C)C)c6)cc45)nc23)s1 [Compound 373, N-(5-(3-(4-(5-Methylthiophen-2-yl)-1H-imidazo[4,5-c]pyridin-2-yl)-1H-pyrazolo[3,4-c]pyridin-5-yl)pyridin-3-yl)isobutyramide] | ≥ 8.05 |
| 7.14 | Cc1ccc(-c2nccc3[nH]c(-c4n[nH]c5cnc(-c6cncc(CN7CCCCC7)c6)cc45)nc23)s1 [Compound 379, 3-(4-(5-Methylthiophen-2-yl)-1H-imidazo[4,5-c]pyridin-2-yl)-5-(5-(piperidin-1-ylmethyl)pyridin-3-yl)-1H-pyrazolo[3,4-c]pyridine] | ≥ 8.05 |
| 6.78 | Cc1ccc(-c2nccc3[nH]c(-c4n[nH]c5cnc(-c6cncc(NC(=O)C7CCCC7)c6)cc45)nc23)s1 [Compound 385, N-(5-(3-(4-(5-Methylthiophen-2-yl)-1H-imidazo[4,5-c]pyridin-2-yl)-1H-pyrazolo[3,4-c]pyridin-5-yl)pyridin-3-yl)cyclopentanecarboxamide] | ≥ 8.05 |
| < 5.00 | CC(=O)c1ccc(-c2nccc3[nH]c(-c4n[nH]c5cnc(-c6cncc(NC(=O)Cc7ccccc7)c6)cc45)nc23)s1 [Compound 400, N-(5-(3-(4-(5-Acetylthiophen-2-yl)-1H-imidazo[4,5-c]pyridin-2-yl)-1H-pyrazolo[3,4-c]pyridin-5-yl)pyridin-3-yl)-2-phenylacetamide] | ≥ 8.05 |
| 5.72 | CC(=O)c1ccc(-c2nccc3[nH]c(-c4n[nH]c5cnc(-c6cncc(NC(=O)CC(C)(C)C)c6)cc45)nc23)s1 [Compound 406, N-(5-(3-(4-(5-Acetylthiophen-2-yl)-1H-imidazo[4,5-c]pyridin-2-yl)-1H-pyrazolo[3,4-c]pyridin-5-yl)pyridin-3-yl)-3,3-dimethylbutanamide] | ≤ 5.00 |
| < 5.00 | CC(=O)c1ccc(-c2nccc3[nH]c(-c4n[nH]c5cnc(-c6cncc(NC(=O)C7CCCCC7)c6)cc45)nc23)s1 [Compound 412, N-(5-(3-(4-(5-Acetylthiophen-2-yl)-1H-imidazo[4,5-c]pyridin-2-yl)-1H-pyrazolo[3,4-c]pyridin-5-yl)pyridin-3-yl)cyclohexanecarboxamide] | ≥ 8.05 |
| < 5.00 | CS(=O)(=O)NCc1cc(F)cc(-c2nccc3[nH]c(-c4n[nH]c5cnc(-c6cncc(NC(=O)c7ccccc7)c6)cc45)nc23)c1 [Compound 427, N-(5-(3-(4-(3-Fluoro-5-(methylsulfonamidomethyl)phenyl)-1H-imidazo[4,5-c]pyridin-2-yl)-1H-pyrazolo[3,4-c]pyridin-5-yl)pyridin-3-yl)benzamide] | ≤ 5.00 |
| < 5.00 | CCCC(=O)Nc1cncc(-c2cc3c(-c4nc5c(-c6cc(F)cc(CNS(C)(=O)=O)c6)nccc5[nH]4)n[nH]c3cn2)c1 [Compound 433, N-(5-(3-(4-(3-Fluoro-5-(methylsulfonamidomethyl)phenyl)-1H-imidazo[4,5-c]pyridin-2-yl)-1H-pyrazolo[3,4-c]pyridin-5-yl)pyridin-3-yl)butyramide] | 6.71 |
| 7.17 | CS(=O)(=O)NCc1cc(F)cc(-c2nccc3[nH]c(-c4n[nH]c5cnc(-c6cncc(CNCc7ccccc7)c6)cc45)nc23)c1 [Compound 439, N-(3-(2-(5-(5-((Benzylamino)methyl)pyridin-3-yl)-1H-pyrazolo[3,4-c]pyridin-3-yl)-1H-imidazo[4,5-c]pyridin-4-yl)-5-fluorobenzyl)methanesulfonamide] | ≥ 8.05 |
